# Experimental data published in patent US4661484A, “Pyridazinone derivatives and salts thereof as cardiac stimulants” (Mitsubishi Chemical Industries Limited, priority 1984, dated 1987).
# How the values were obtained:
# papillary muscle of dog = assay: Effect on contraction of an isolated and cross-circulated papillary muscle preparation of the dog; details: Canis lupus familiaris; dosage 30 μg i.a.; read-out: Contraction of papillary muscle of dog, increase
# Experimental: 1. Effect on contraction of an isolated and cross-circulated papillary muscle preparation of the dog
# An isolated and cross-circulated papillary muscle preparation of the dog was prepared by Endo and Hashimoto's method (referred to American Journal of Physiology, 218, 1459-1463, 1970). The effect of the compound was measured by closely intraarterially injecting the compound dissolved in a solvent to the papillary muscle for the purpose of recording its effect on contraction of papillary muscle.
# [1] = tested on: left atrium of the guinea pig; assay: Effect on contraction of an isolated left atrium of the guinea pig; details: Cavia porcellus; dosage 10^-5 g/ml; read-out: Contraction of left atrium of guinea pig, increase
# Experimental: 2. Effect on contraction of an isolated left atrium of the guinea pig
# A left atrium was isolated from a male guinea pig with 200-300 g of body weight soon after striking on the back of its head. The mitral orifice was fixed to the bottom of an organ bath filled with 30 ml of Krebs-Henseleit solution maintained at 35° C. A gas mixture comprising 95% of O2 and 5% of CO2 was passed through the Krebs-Henseleit solution in the organ bath. Isometric tension was measured by connecting a left auricle of heart and a transducer by a yarn. A resting tension of 0.5 g was given to the atrium, which was then electrically driven with square pulses with duration of 1 msec and voltage of 1.5 times as much as threshold in the rate of 2 Hz via dipolar platinum electrodes.
# After stabilizing the atrium for 30 minutes from its preparation, the compound dissolved in a solvent was added to the organ bath to measure its effect.
# [2] = tested on: myocardial contraction in anesthetized dogs; assay: Effects on myocardial contraction in anesthetized dogs; assay type: in vivo; details: anesthetized dog
# Experimental: 3. Effects on myocardial contraction in anesthetized dogs
# Male and female mongrel dogs with body weight of 8-15 kg were used. A dog was anesthetized by intraveneous injection of 30 mg/kg of sodium pentobarbital and practiced artificial respiration. The dog was thoractomized between fourth and fifth costa which was cut off. The pericardium was incised to expose heart. Blood flow through the aorta, which was measured with an electromagnetic blood flowmeter whose probe was attached to the ascending aorta, was used as an approximate index of cardiac output (CO). Left ventricular pressure (LVP) was measured with a Miller Catheter-tip pressure transducer and the first derivative of the LVP (dP/dt) was measured with a differentiater. Contraction of right ventricular muscle (Cont) was determined with a strain-gauge attached to the wall. Systemic blood pressure was measured from the left femoral artery. Heart rate was measured with electrocardiogram (lead II) and a cardiotachometer. The compound dissolved in a solvent was administered intravenously from a left femoral vein.
# [3] = Acute toxicity (LD50), intravenous, male mice; details: mouse, in vivo, i.v.
# Experimental: Acute toxicity (LD50) for intravenous administration in male mice was determined by the method of […] and Wilcoxon (referred to Journal of Pharmacology and Experimental Therapeutics, 96, 99-113, 1949).
smiles,measurement,setting,value
"O=c1ccc(-c2ccc(Nc3ccncc3)cc2)n[nH]1 [Example I, 6-[4-(4'-pyridyl)aminophenyl]-3(2H)-pyridazinone]",activation at 0.03 mg,papillary muscle of dog,12.4%
same,activation at 10 µg/mL,[1],163%
same,CO increase (cardiac output),[2]; 30 μg/kg i.v.,13%
same,Cont increase (contraction of right ventricular muscle),[2]; 30 μg/kg i.v.,31%
same,dP/dt max increase,[2]; 30 μg/kg i.v.,64%
same,CO increase (cardiac output),[2]; 100 μg/kg i.v.,11%
same,Cont increase (contraction of right ventricular muscle),[2]; 100 μg/kg i.v.,39%
same,dP/dt max increase,[2]; 100 μg/kg i.v.,108%
same,LD50,[3],103 mg/kg
